Assay in all cases: growth of human tumour cells (NCI), 48 h
Assay [1] has as its system HCT-15 colon.
Assay [2] relates to IGROV1 ovarian.
Assay [3] deals with MCF7 breast.
For assay [4], the system named is MOLT-4 leukemia.
In assay [5] the test system is OVCAR-3 ovarian.
Assay [6] concerns RPMI-8226 leukemia.
For assay [7], the system named is SF-539 CNS.
For assay [8], the system named is SK-MEL-2 melanoma.
Assay [9] concerns SR leukemia.
Assay [10] relates to UACC-257 melanoma.

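Protocol summary: plate cells (96-well), add compound at 5 concentrations, incubate 48 h, interpolate endpoints linearly. GI50: concentration for 50% inhibition of growth. TGI denotes the concentration required for complete inhibition of growth.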

Turning to `COc1ccc(O)c(C(=O)c2ccc(C(=O)O[C@@H]3CCCNC[C@H]3NC(=O)c3ccncc3)cc2)c1F`, the GI50 was 0.918 µM in [1]; 0.493 µM in assay [2]; 0.275 µM in assay [3]; 0.456 µM in [4]; 0.961 µM in assay [5]; 1.25 µM in assay [6]. In addition, the GI50 in [7] was 0.0852 µM; in [8], 0.89 µM; in assay [9], 0.146 µM. Further, the TGI in assay [1] is over 25 µM; in [2], over 25 µM; in [3], over 25 µM; in [4], over 5.54 µM; in assay [5], over 7.35 µM; in assay [6] it was over 25 µM. For the same molecule, the TGI was 0.779 µM in [7], 16.6 µM in assay [8] and over 5.21 µM in assay [9].

As for `O=C1c2ccccc2C(=O)N1c1ccc(S(=O)(=O)Nc2ncccn2)cc1`, the GI50 in assay [1], in [2], in assay [3], in assay [4], in assay [5] and in [6] was over 100 µM each time. Moreover, the GI50 in assay [7], in assay [8], in assay [9] and in assay [10] was over 100 µM in each case. Besides, the TGI in assay [1], in assay [2], in assay [3], in assay [4], in assay [5] and in [6] was over 100 µM each time. Also, the TGI in [7], in assay [8], in assay [9] and in [10] was over 100 µM throughout.

With `C#C[C@]1(O)CC[C@H]2[C@@H]3CC=C4c5sc(N=C(N)N)nc5CC[C@]4(C)[C@H]3CC[C@@]21C`, the GI50 was 0.525 µM in [1]; 1.03 µM in [2]; 0.391 µM in [3]; 0.297 µM in assay [4]; 1.36 µM in assay [5]; 0.153 µM in assay [6]. The GI50 in [7] was 0.233 µM; in assay [8], 0.787 µM; in [9], 0.348 µM; in [10] it was 0.369 µM. Further, the TGI amounted to 1.98 µM in assay [1]; 2.41 µM in assay [2]; 1.88 µM in assay [3]; 1.01 µM in [4]; 2.82 µM in assay [5]; 0.864 µM in assay [6]. Further, the TGI worked out at 1.12 µM in [7], 2.36 µM in assay [8], 1.98 µM in assay [9] and 1.4 µM in assay [10].

For the molecule `CCC(Sc1nnc2c3ccccc3n(CC)c2n1)C(=O)Nc1ccccc1OC` (configuration not stated), the GI50 was 66.8 µM in [1]; over 93.8 µM in assay [2]; over 89.9 µM in assay [3]; 35 µM in assay [4]; 8.49 µM in assay [5]; 4.35 µM in assay [6]. Also, the GI50 in [7], in assay [8], in assay [9] and in assay [10] was over 100 µM in each case. The TGI in [1] was over 100 µM; in [2] it was over 100 µM; in assay [3], over 100 µM; in assay [4], over 100 µM; in assay [5], over 79.4 µM; in [6] it was over 72.8 µM. Also, the TGI in [7], in assay [8], in assay [9] and in [10] was over 100 µM in each case.

Turning to `O=C(Nc1ccc(Br)cc1)Nc1n[nH]c2ccccc12`, the GI50 in assay [1] was 17.3 µM; in assay [2], 17.5 µM; in assay [3], 42.1 µM; in [4], 8.98 µM; in assay [5], over 100 µM; in [7], over 70.9 µM. For the same molecule, the GI50 in assay [8] is over 100 µM; in assay [9] it was 4.78 µM; in [10], over 100 µM. The TGI in [1], in [2], in assay [3], in assay [4], in assay [5] and in assay [6] was over 100 µM throughout. Also, the TGI in assay [7], in assay [8], in assay [9] and in assay [10] was over 100 µM in each case.

`O=C1OC(c2ccc(O)c(-c3ccccc3)c2)(c2ccc(O)c(-c3ccccc3)c2)c2c(Cl)c(Cl)c(Cl)c(Cl)c21`: the TGI in assay [1], in assay [2], in [3], in [4], in assay [5] and in assay [6] was over 100 µM in each case. The TGI in assay [7], in assay [8], in [9] and in [10] was over 100 µM each time.

Turning to `CCC[C@H](N[C@@H]1CCc2cc(F)cc(F)c2C1)C(=O)Nc1cn(C(C)(C)CNCC(C)(C)C)cn1`, the GI50 in assay [1] is 15.7 µM; in assay [2] it was 28.6 µM; in assay [3], 15.6 µM; in assay [4], 8.03 µM; in [5], 15.3 µM; in assay [6], 5.98 µM. The GI50 in assay [7] is 16.7 µM; in [8], 16.1 µM; in assay [9], 14.2 µM; in assay [10], 13.2 µM. Moreover, the TGI in assay [1] was 75.2 µM; in assay [2], over 100 µM; in assay [3], over 56.7 µM; in assay [4] it was over 68.1 µM; in assay [5], 42.9 µM; in assay [6], 34.8 µM. The TGI was 34.6 µM in assay [7], 35.4 µM in [8], over 79 µM in assay [9] and 37.7 µM in assay [10].

`CCOC(=O)CC1(O)C=CC(=O)C=C1`: the GI50 is 0.313 mg/L in assay [1]; 0.885 mg/L in assay [2]; 0.824 mg/L in assay [3]; 0.4 mg/L in assay [4]; 0.738 mg/L in assay [5]; 1.24 mg/L in assay [6]. Moreover, the GI50 in assay [7] is 0.581 mg/L; in assay [8] it was 2.33 mg/L; in assay [9], 0.348 mg/L; in [10], 0.883 mg/L. Further, the TGI stood at 0.596 mg/L in assay [1]; 2.19 mg/L in assay [2]; 2.59 mg/L in assay [3]; 1.61 mg/L in assay [4]; 2.16 mg/L in assay [5]; 28.4 mg/L in [6]. Moreover, the TGI in assay [7] was found to be 2.68 mg/L; in assay [8], 4.66 mg/L; in assay [9], 1.18 mg/L; in [10] it was 2.09 mg/L.

Regarding `O=C(O)C1C2CC3C(OC(=O)C31)C2Br` (configuration not stated), the TGI in assay [1] is over 100 µM; in assay [2] it was over 100 µM; in [3], over 100 µM; in assay [4], over 58.1 µM; in [5], over 100 µM; in assay [6], over 100 µM. Further, the TGI in assay [7] is over 100 µM; in assay [8], over 100 µM; in assay [9], 26.2 µM; in assay [10], over 100 µM.

For `COc1cc(CSc2nc3ccc(C)cc3c(=O)n2Cc2ccccc2)cc(OC)c1OC`, the GI50 in [1] was 0.773 µM; in assay [2], 3.47 µM; in assay [3], 0.587 µM; in assay [4], 4.57 µM; in [5], 0.956 µM; in [6] it was 2.96 µM. Further, the GI50 in assay [7] is 2.26 µM; in assay [8], 4.05 µM; in assay [9] it was 0.372 µM; in [10], 6.73 µM. The TGI in assay [1] was over 100 µM; in assay [2], over 100 µM; in assay [3] it was 22.8 µM; in [4] it was over 100 µM; in assay [5], 7.02 µM; in assay [6] it was over 100 µM. Besides, the TGI is 8.32 µM in assay [7], 43.1 µM in assay [8], 11.1 µM in assay [9] and over 100 µM in assay [10].

`CC(C)(C)c1ccc([I+]c2ccc(C(C)(C)C)cc2)cc1`: the GI50 was 5.08 µM in assay [1]; 2.33 µM in assay [2]; 1.35 µM in assay [3]; 1.96 µM in [4]; 1.44 µM in assay [5]; 0.389 µM in assay [6]. Besides, the GI50 in assay [7] is 2.08 µM; in [8], 1.51 µM; in [9] it was 0.935 µM; in [10] it was 0.595 µM. Besides, the TGI in assay [1] is 18.2 µM; in assay [2] it was 12.2 µM; in assay [3], 9.17 µM; in assay [4], 7.79 µM; in [5], 6.87 µM; in assay [6], 1.99 µM. Moreover, the TGI in [7] worked out at 10.2 µM; in assay [8] it was 3.86 µM; in assay [9] it was 3.15 µM; in [10], 2.54 µM.

`CN1CCN(c2ccc3nc(-c4cc(C(C)(C)C)c(O)c(C(C)(C)C)c4)[nH]c3c2)CC1`: the GI50 in assay [1] was 1.71 µM; in assay [2], 3.65 µM; in assay [3], 1.8 µM; in assay [4], 2.2 µM; in [5], 4.06 µM; in [6], 2.08 µM. Further, the GI50 in assay [7] was 1.79 µM; in assay [8], 2.38 µM; in assay [9], 2.45 µM; in [10] it was 2 µM. Further, the TGI in assay [1] turned out to be 3.49 µM; in [2], 12.6 µM; in [3], 4.14 µM; in [4], 5.55 µM; in assay [5], 14 µM; in assay [6] it was 4.85 µM. Further, the TGI came to 3.35 µM in assay [7], 5.49 µM in assay [8], 8.58 µM in assay [9] and 3.97 µM in assay [10].

With `CN1C(=O)CNC(=O)[C@H](NC(=O)c2nc3ccccc3cc2O)CSSC[C@H]1C(=O)NCCc1nc2ccccc2cc1O`, the GI50 in [1] is 20.7 µM; in [2] it was 32 µM; in assay [3] it was 6.23 µM; in assay [4] it was 1.4 µM; in [5] it was 4.61 µM; in assay [6], 14.5 µM. Further, the GI50 in assay [7] is 15.2 µM; in [8] it was 2.57 µM; in assay [9], 0.387 µM; in assay [10] it was 17.1 µM. The TGI in [1] is over 62.5 µM; in [2] it was over 100 µM; in assay [3], 27.4 µM; in assay [4], 14.8 µM; in assay [5] it was 18.2 µM; in assay [6], 62.3 µM. Moreover, the TGI in [7] stood at 39.1 µM; in [8] it was 8.47 µM; in assay [9] it was 1.96 µM; in assay [10] it was 72.9 µM.

Regarding `CS(=O)(=O)CCNCc1ccc(-c2ccc3ncnc(Nc4ccc(OCc5cccc(C(F)(F)F)c5)cc4)c3c2)o1`, the GI50 is 4.71 µM in [1]; 5.46 µM in [2]; 6.38 µM in assay [3]; 4.87 µM in assay [4]; 5.15 µM in assay [5]; 5.7 µM in [6]. Besides, the GI50 is 4.66 µM in [7], 5.46 µM in assay [8], 4.49 µM in assay [9] and 3.79 µM in assay [10]. Also, the TGI in assay [1] is 10.6 µM; in [2], over 17.5 µM; in [3] it was over 15 µM; in [4], over 20.9 µM; in assay [5] it was 11.2 µM; in assay [6], 16.5 µM. The TGI in assay [7] is 9.75 µM; in [8] it was 9.96 µM; in assay [9], 16.7 µM; in assay [10] it was 7.49 µM.

For `CCCCCCCCCCCCCCCc1cc(O)ccc1N`, the GI50 in assay [1] is 45.8 µM; in assay [2], 0.416 µM; in assay [3], 23 µM; in assay [4], 0.183 µM; in [5], 5.1 µM; in [6] it was 0.18 µM. The GI50 in assay [7] was 0.702 µM; in [8], over 100 µM; in assay [9], 2.18 µM; in assay [10], 11.3 µM. Besides, the TGI is over 100 µM in assay [1]; 6.61 µM in assay [2]; over 100 µM in assay [3]; over 24.8 µM in assay [4]; over 27.9 µM in assay [5]; 18.8 µM in assay [6]. Moreover, the TGI in [7] was 2.19 µM; in assay [8], over 100 µM; in [9], 23.4 µM; in assay [10] it was over 80.1 µM.
